Measured values as given in article PMC8911752, “The Synthesis and Initial Evaluation of MerTK Targeted PET Agents” (Molecules, 2022).

How the values were obtained:
[1] = biological target: T1, Tyro3 (Homo sapiens, UniProt Q06418); test: Microcapillary electrophoresis (MCE) kinase assay, Tyro3; format: biochemical; settings: ATP at Km, mean of two or more independent assays
T1 sequence (Q06418 41-890): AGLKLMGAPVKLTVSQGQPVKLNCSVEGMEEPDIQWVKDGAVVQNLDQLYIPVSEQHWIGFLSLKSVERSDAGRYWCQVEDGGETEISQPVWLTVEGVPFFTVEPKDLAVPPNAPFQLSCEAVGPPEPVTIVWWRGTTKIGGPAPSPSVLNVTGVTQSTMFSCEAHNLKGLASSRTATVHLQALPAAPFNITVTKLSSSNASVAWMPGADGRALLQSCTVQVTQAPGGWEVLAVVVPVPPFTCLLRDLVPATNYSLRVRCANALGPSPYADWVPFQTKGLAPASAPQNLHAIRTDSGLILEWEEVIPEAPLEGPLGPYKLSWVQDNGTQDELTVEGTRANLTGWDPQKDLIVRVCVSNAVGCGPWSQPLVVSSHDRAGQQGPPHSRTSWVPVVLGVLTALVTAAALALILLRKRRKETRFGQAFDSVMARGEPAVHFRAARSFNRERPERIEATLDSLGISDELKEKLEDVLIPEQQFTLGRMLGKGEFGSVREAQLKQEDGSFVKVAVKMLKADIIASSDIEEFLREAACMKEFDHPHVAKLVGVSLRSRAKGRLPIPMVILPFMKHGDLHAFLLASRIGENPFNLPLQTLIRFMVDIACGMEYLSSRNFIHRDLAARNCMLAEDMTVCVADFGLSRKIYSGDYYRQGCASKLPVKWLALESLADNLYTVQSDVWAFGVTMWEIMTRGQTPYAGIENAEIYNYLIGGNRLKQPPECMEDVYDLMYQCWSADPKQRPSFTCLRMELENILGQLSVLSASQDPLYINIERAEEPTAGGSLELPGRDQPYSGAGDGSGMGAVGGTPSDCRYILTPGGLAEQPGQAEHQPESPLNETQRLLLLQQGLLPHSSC
Procedure: The inhibitory activities of standards towards MerTK, Axl, Tyro3 and Flt3 were determined in our in-house microcapillary electrophoresis (MCE) assays.
Microcapillary Electrophoresis (MCE) Assays were performed with literature method. […] All reactions were terminated by addition of 20 µL of 70 mM EDTA. After an 180 min incubation, phosphorylated and unphosphorylated substrate peptides (Table 2) were separated in buffer supplemented with 1 x CR-8 on a LabChip EZ Reader equipped with a 12-sipper chip. Data were analyzed using EZ Reader software.

[2] = tested on: B16F10 tumor-bearing mice; test: PET imaging in B16F10 tumor-bearing mice; format: in vivo; settings: 68Ga-labeled, initial pilot study in mice
[3] = tested on: B16F10 tumor-bearing mice; test: PET imaging in B16F10 tumor-bearing mice; format: in vivo; settings: initial PET study, 18F-labeled agents
Procedure: Evaluation of the PET agent [^18F]-MerTK-6 was performed on B16F10 tumor-bearing mice. At 30 min post-injection (p.i), the uptake in tumor, liver, kidney, and muscle was 4.65 ± 1.25, 14.79 ± 0.99, 10.42 ± 1.01, and 2.51 ± 0.48%ID/g, respectively. The uptake at 2 h p.i. was 4.79 ± 0.24, 9.72 ± 1.56, 5.34 ± 1.25, and 1.55 ± 0.23%ID/g, respectively. Overall, the tumor uptake was maintained at ~5%ID/g and the tumor to muscle contrast increased to 3.09 at 2 h p.i, compared with 1.86 at 0.5 h p.i.
All animal studies were reviewed and approved by The University of North Carolina at Chapel Hill Institutional Animal Care and Use Committee. The B16F10 tumor cell was obtained from the LCCC tissue culture facility (the University of North Carolina at Chapel Hill, Chapel Hill, NC, USA). The B16F10 tumor-bearing […] mouse model was prepared as described previously. Briefly, B16/F10 cells were subcutaneously injected on the right flank of C57BL/6 female mice (Jackson Laboratory). The tumor volume was measured daily. When the tumor size reached 100 mm^3, the mice were used for PET imaging studies.
B16F10 tumor-bearing mice (n = 3/group) were intravenously injected via the tail vein with tracers. At 30 min and 120 min post-injection, a 10-min static emission scan was acquired with a SuperArgus small-animal PET/CT scanner. The regions of interests (ROIs) were drawn over the tumor and other organs and calculated as %ID/g. The mean uptake and standard deviation were calculated.

SMILES	IC50 [1] [nM]	tumor uptakes [2] [%ID/g]	tumor uptake and contrast compared with MerTK-5 [3]
C[C@H](Nc1ncc2c(C3CCN(C)CC3)cn([C@H]3CC[C@H](O)CC3)c2n1)c1ccccc1 [MerTK-2]	180		
C[C@H](Nc1ncc2c(C3CCN(C(=S)Nc4ccc(CC5CN(CC(=O)O)CCN(CC(=O)O)CCN5CC(=O)O)cc4)CC3)cn([C@H]3CC[C@H](O)CC3)c2n1)c1ccccc1 (stereo partly drawn) [MerTK-4]	180	< 1	
CCC[C@H](C)Nc1ncc2c(C3CCN(CCF)CC3)cn([C@H]3CC[C@H](O)CC3)c2n1 [MerTK-5]	190		
C[C@H](Nc1ncc2c(C3CCN(CCF)CC3)cn([C@H]3CC[C@H](O)CC3)c2n1)c1ccccc1 [MerTK-6]	120		more prominent tumor uptake and contrast
